Experimental data published in patent publication US20240269125A1, “METHODS OF TREATING CORONAVIRUS INFECTIONS BY CO-ADMINISTERING AN FKBP LIGAND AND AN ANTIVIRAL AGENT” (priority 2020, published 2024).
Like-named read-outs stand apart in the source and are kept apart here.

Experiments:
[1] = system: SARS COV-2 (USA_WA1/2020); assay type: cell-based; settings: Example 10; remdesivir alone up to 6,666.667 nM; FK1706 alone up to 60,000 nM
Vero E6 cells = settings: Table 1, Example 6; 50% cell death in absence of virus, day 4
[2] = system: SARS CoV-2 (USA-WA1/2020); experiment: organism not typed; assay type: cell-based
in vitro [3] = settings: African green monkey
[4] = system: SARS CoV-2 (USA-WA1/2020); experiment: organism not typed; assay type: cell-based; settings: for reduction in SARS COV-2 virus: Example 6
in vitro [5] = settings: African green monkey, TC50, Table 1, Example 6
[6] = Example 9, antiviral alone at sub-therapeutic level (molnupiravir 0.3 μM; remdesivir 3 μM)
[7] = TC50, Table 2, Example 7, 50% cell death in absence of virus, day 3
[8] = TC50, Table 4, Example 9, single conc. (sub-therapeutic antiviral alone)

**Q.** Which “antiviral activity as single agent” value [1] does the source give for `CO[C@H]1C[C@@H](C)C/C(C)=C/[C@@H](CC(C)=O)C(=O)C[C@H](O)[C@@H](C)C(/C(C)=C/[C@@H]2CC[C@@H](O)[C@H](OC)C2)OC(=O)C2CCCCC2C(=O)C(=O)[C@]2(O)O[C@H]1[C@@H](OC)C[C@H]2C` (some centres unmarked) [FK1706] here?
**A.** The value was “no significant antiviral activity”.

**Q.** And the TC50 (Vero E6 cells)?
**A.** The TC50 was greater than 90 µM.

**Q.** What about the “reduction in SARS COV-2 virus” value ([2]; Example 8, FK1706 alone 2.85-90 μM) of the same compound?
**A.** Its value is 0-10%.

**Q.** And the EC50 ([2]; Vero C1008, 72 h, Table 3, Example 8, Vero E6, day 3, read-out: EC50)?
**A.** The EC50 was greater than 90 µM.

**Q.** And the CC50 (in vitro [3]; TC50, Table 3, Example 8, day 3)?
**A.** Its CC50 is greater than 90 µM.

**Q.** And the “reduction in SARS COV-2 virus” value ([4]; FK1706 11-90 μM, alone or co-administered with fixed antiviral)?
**A.** Its value is 0-7%.

**Q.** And the EC50 ([4]; Vero C1008, 96 h, Table 1, Example 6, Vero E6, concentration inhibiting CPE by 50%, day 4, read-out: EC50)?
**A.** Its EC50 is greater than 90 µM.

**Q.** With `CCC(CC)COC(=O)[C@H](C)N[P@](=O)(OC[C@H]1O[C@@](C#N)(c2ccc3c(N)ncnn23)[C@H](O)[C@@H]1O)Oc1ccccc1` [Remdesivir] as the compound, how does the CC50 (in vitro [5]; 50% cell death in absence of virus, day 4) read?
**A.** The CC50 was greater than 100 µM.

**Q.** And the CC50 (in vitro [5]; single conc. (sub-therapeutic antiviral alone))?
**A.** Its CC50 is greater than 3 µM.

**Q.** And the “reduction in SARS COV-2 virus” value ([2]; Example 7, antiviral alone at sub-therapeutic level (remdesivir 3 μM; M128533 1 μg/mL))?
**A.** The value was 2-19%.

**Q.** What about the “reduction in SARS COV-2 virus” value [2, 6] of the same compound?
**A.** Its value is 20-30%.

**Q.** And the EC50 ([2]; Table 2, Example 7, single conc. (sub-therapeutic antiviral alone))?
**A.** Its EC50 is greater than 3 µM.

**Q.** What about the EC50 ([2]; Table 4, Example 9, single conc. (sub-therapeutic antiviral alone)) of the same compound?
**A.** The EC50 was greater than 0.3 µM.

**Q.** What about the EC50 ([2]; Vero C1008, 72 h, Table 2, Example 7, Vero E6, concentration inhibiting CPE by 50%, day 3) of the same compound?
**A.** Its EC50 is 7.31 µM.

**Q.** And the CC50 (in vitro [3]; [7])?
**A.** The CC50 was greater than 100 µM.

**Q.** And the CC50 (in vitro [3]; TC50, Table 2, Example 7, single conc. (sub-therapeutic antiviral alone))?
**A.** Its CC50 is greater than 3 µM.

**Q.** And the CC50 (in vitro [3]; [8])?
**A.** Its CC50 is greater than 0.3 µM.

**Q.** What about the EC50 [4] of the same compound?
**A.** The EC50 was greater than 3 µM.

**Q.** What about the “reduction in SARS COV-2 virus” value ([4]; antiviral alone at sub-therapeutic level (remdesivir 3 μM; M128533 1 μg/mL)) of the same compound?
**A.** The value was 5-14%.

**Q.** And the EC50 ([4]; Vero C1008, 96 h)?
**A.** The EC50 was 3.63 µM.

**Q.** For `O=C(C(=O)N1CCCC[C@H]1C(=O)NCCCc1ccccc1)c1ccccc1` [ElteN378], which “reduction in SARS COV-2 virus” value ([2]; Example 7, ElteN378 0.12-30 μM, alone or co-administered with fixed antiviral) is on record?
**A.** The value was 0-7%.

**Q.** What about the EC50 ([2]; Vero C1008, 72 h, Table 2, Example 7, Vero E6, concentration inhibiting CPE by 50%, day 3, read-out: EC50) of the same compound?
**A.** Its EC50 is greater than 30 µM.

**Q.** What about the CC50 (in vitro [3]; [7]) of the same compound?
**A.** The CC50 was greater than 30 µM.

**Q.** Which results are given for `CCC(C)(C)C(=O)C(=O)N1CCC[C@H]1C(=O)O` [GPI-1485]?
**A.** reduction in SARS COV-2 virus ([2]; Example 9, GPI-1485 40-320 μM, alone or co-administered with fixed antiviral): 0-6%; EC50 ([2]; Vero C1008, 72 h, Table 4, Example 9, Vero E6, day 3): > 320 µM; CC50 (in vitro [3]; TC50, Table 4, Example 9, day 3): > 320 µM

**Q.** For `CC(C)C(=O)OC[C@H]1O[C@@H](n2ccc(=NO)[nH]c2=O)[C@H](O)[C@@H]1O` [Molnupiravir, ((2R,3S,4R,5R)-3,4-dihydroxy-5-(4-(hydroxyimino)-2-oxo-3,4-dihydropyrimidin-1(2H)-yl)tetrahydrofuran-2-yl)methyl isobutyrate], which “reduction in SARS COV-2 virus” value ([2]; Example 8, molnupiravir alone 0.3 μM) is on record?
**A.** The value was 4-13%.

**Q.** And the “reduction in SARS COV-2 virus” value [2, 6]?
**A.** The value was 4-13%.

**Q.** And the EC50 ([2]; Table 3, Example 8, single conc. (0.3 μM molnupiravir alone), read-out: EC50)?
**A.** Its EC50 is greater than 0.3 µM.

**Q.** What about the EC50 ([2]; Table 4, Example 9, single conc. (sub-therapeutic antiviral alone), read-out: EC50) of the same compound?
**A.** Its EC50 is greater than 0.3 µM.

**Q.** And the CC50 (in vitro [3]; TC50, Table 3, Example 8, single conc. (0.3 μM molnupiravir alone))?
**A.** Its CC50 is greater than 0.3 µM.

**Q.** What about the CC50 (in vitro [3]; [8]) of the same compound?
**A.** Its CC50 is greater than 0.3 µM.
